Where a name gives a salt, the structure may show the parent alone.
Tested on: male spontaneously hypertensive rats
Test: Decrease in systolic blood pressure in spontaneously hypertensive rats after intravenous bolus injection, indirect (tail-cuff) method
Format: in vivo, rat
Conditions: for Decrease in systolic blood pressure (mmHg) time after administration (hour) 0.5: 0.5 hour after administration; for Decrease in systolic blood pressure (mmHg) time after administration (hour) 4: 4 hours after administration
Experimental: As test animals, four male spontaneously hypertensive rats (weight 400 to 440 g) that were sufficiently adapted for feeding and in which hypertension was confirmed were used.
Physiological saline aqueous solution containing 2.5% Nicolle and 2.5% ethanol of sample was intravenously administered by bolus injection at a dose of 1 ml per 1 kg of body weight. Systolic blood pressure after administration was measured by the indirect (tail-cuff) method.

[1] = dose 10 mg/kg i.v. bolus, hydrochloride, 10 mg/kg

Row | Compound | Decrease in systolic blood pressure (mmHg) time after administration (hour) 0.5 (dose 10 mg/kg i.v. bolus) [mmHg] | Decrease in systolic blood pressure (mmHg) time after administration (hour) 4 (dose 10 mg/kg i.v. bolus) [mmHg] | also measured
1 | 1-(4-Acetylaminominocinnamyl)-4-(5H-Dibenzo[a,d]thiepiz-5-ylidene)-1-piperidine hydrochloride [Example 327] | – | – | Decrease in systolic blood pressure (mmHg) time after administration (hour) 0.5 (dose 3 mg/kg i.v. bolus): −10 mmHg; Decrease in systolic blood pressure (mmHg) time after administration (hour) 4 (dose 3 mg/kg i.v. bolus): −43 mmHg
2 | 1-(4-Methoxyxyxlohexyl)-4-(4-(5H-dibenzo[a,d]cyclohepten-5-ylidene)-1-piperidinyl)butane hydroxybutane hydrochloride [Example 208] | −131 | −19 | –
3 | 1-Acetoxy-4-(4-(5H-dibenzo[a,d]cyclohepten-5-ylidene)-1-piperidinyl)-(3,4-dimethoxy)phenylButane hydroxybutane hydrochloride [Example 206] | −61 | −27 | –
4 | 2,6-Dimethyl-4-(4-(4-(5H-Dibenzo[a,d]cyclohepten-5-ylidene)-1-piperidinyl)-1-butyl)-5-methylpyrydine-3,5-dicarboxylate dihydrochloride [Example 288] | −92 | −14 | –
5 | 2,6-Dimethyl-4-(4-(4-(5H-dibenzo[a,d]cyclohepten-5-ylidene)-1-piperidinyl)butyl)-5-methyl-1,4-dihydropyrydine-3,5-dicarboxylate hydrochloride [Example 285] | −62 | −7 | –
6 | 2-(2-4-Dibenzo[a,d]cyclohepten-5-ylidene)-1-piperidinyl)-1-ethyl)-5′,6′-dimethoxy-1-indanone hydrochloride [Example 261] | −123 | −11 | –
7 | 3-(4-(5H-Dibenzo[a,d]cyclohepten-5-ylidene)-1-piperidinyl)-1-(2-pyridyl)-1-propane hydrochloride [Example 284] | – | – | Decrease in systolic blood pressure (mmHg) time after administration (hour) 0.5 (dose 3 mg/kg i.v. bolus): −151 mmHg; Decrease in systolic blood pressure (mmHg) time after administration (hour) 4 (dose 3 mg/kg i.v. bolus): −40 mmHg
8 | 4-(2-(4-(5H-Dibenzo[a,d]cyclohepten-5-ylidene)-1-piperidinyl)-1-ehtyl)-2,4,5,6-tetramethyl-1,4-dihydropyridino-3,5-dicarboxylate hydrochloride [Example 311] | −90 | −18 | –
9 | 4-(4-(5H-Dibenzo[a,d]cyclohepten-5-ylidene)-1-piperidinyl)-3′,4′-dimethoxybutyrophenone N-oxide [Example 271] | −17 | −13 | –
10 | 4-(4-(5H-Dibenzo[a,d]cyclohepten-5-ylidene)-1-piperidinyl)-4′-trimethoxybutyrophenone hydrochloride [Example 172] | −115 | −25 | –
11 | 4-(5H-Dibenzo[a,d]cyclohepten-5-ylidene)-1-(4-N-imidazolylmethyl)cinnamyl)piperidine dihydroxybutane hydrochloride [Example 210] | – | – | Decrease in systolic blood pressure (mmHg) time after administration (hour) 0.5 (dose 1 mg/kg i.v. bolus): −78 mmHg; Decrease in systolic blood pressure (mmHg) time after administration (hour) 4 (dose 1 mg/kg i.v. bolus): −69 mmHg
12 | 5-(4-(5H-Dibenzo[a,d]cyclohepten-5-ylidene)-1-piperidine hydrochloride [Example 116] | −36 | −12 | –
13 | 5-(4-(5H-Dibenzo[a,d]cyclohepten-5-ylidene)-1-piperidinyl)-2-isopropyl-2-phenylvaleronitrile hydrochloride [Example 122] | −120 | −62 | –
14 | 5-(4-(5H-Dibenzo[a,d]cyclohepten-5-ylidene)-1-piperidinyl)-2-phenylvaleronitrile hydrochloride [Example 121] | −42 | −19 | –
15 | 5-(4-(5H-Dibenzo[a,d]cyclohepten-5-ylidene)-1-piperidinyl-2-(3,4-dimethoxyphenyl)valeronitrile hydrochloride [Example 123] | −55 | −7 | –
16 | CCCCCCN1CCC(=C2c3ccccc3C=Cc3ccccc32)CC1.Cl [Example 1, 4-(5H-Dibenzo[a,d]cyclohepten-5-ylidene)-1-hexylpiperidine hydrochloride] | −67 | 1 | –
17 | CCCCCCCCN1CCC(=C2c3ccccc3C=Cc3ccccc32)CC1.Cl [Example 2, 4-(5H-Dibenzo[a,d]cyclohepten-5-ylidene)-1-octylpiperidine hydrochloride] | −125 | −34 | –
18 | CCCCCCCCCCN1CCC(=C2c3ccccc3C=Cc3ccccc32)CC1.Cl [Example 3, 1-Decyl-4-(5H-dibenzo[a,d]cyclohepten-5-ylidene)piperidine hydrochloride] | – | – | Decrease in systolic blood pressure (mmHg) time after administration (hour) 0.5 (dose 3 mg/kg i.v. bolus): −110 mmHg; Decrease in systolic blood pressure (mmHg) time after administration (hour) 4 (dose 3 mg/kg i.v. bolus): −22 mmHg
19 | CCCCCCCCCCCCN1CCC(=C2c3ccccc3C=Cc3ccccc32)CC1.Cl [Example 4, 4-(5H-Dibenzo[a,d]cyclohepten-5-ylidene)-1-dodecylpiperidine hydrochloride] | −76 | 0 | –
20 | CCCCCCCCCCCCCCN1CCC(=C2c3ccccc3C=Cc3ccccc32)CC1.Cl [Example 5, 4-(5H-Dibenzo[a,d]cyclohepten-5-ylidene)-1-tetradecylpiperidine hydrochloride] | −56 | −20 | –
21 | C1=Cc2ccccc2C(=C2CCN(CC3CCCCC3)CC2)c2ccccc21.Cl [Example 7, 1-Cyclohexylmethyl-4-(5H-dibenzo[a,d]cyclohepten-5-ylidene)piperidine hydrochloride] | −57 | −15 | –
22 | C1=Cc2ccccc2C(=C2CCN(CCC3CCCCC3)CC2)c2ccccc21.Cl [Example 8, 1-Cyclohexyl-2-(4-(5H-dibenzo[a,d]cyclohepten-5-ylidene)-1-piperidinyl)ethane hydrochloride] | −95 | −21 | –
23 | C1=Cc2ccccc2C(=C2CCN(CCCC3CCCCC3)CC2)c2ccccc21.Cl [Example 9, 1-Cyclohexyl-3-(4-(5H-dibenzo[a,d]cyclohepten-5-ylidene)-1-piperidinyl)propane hydrochloride] | −91 | −19 | –
24 | C1=Cc2ccccc2C(=C2CCN(CCCCC3CCCCC3)CC2)c2ccccc21.Cl [Example 10, 1-Cyclohexyl-4-(4-(5H-dibenzo[a,d]cyclohepten-5-ylidene)-1-piperidinyl)butane hydrochloride] | – | – | Decrease in systolic blood pressure (mmHg) time after administration (hour) 0.5 [1]: −129 mmHg; Decrease in systolic blood pressure (mmHg) time after administration (hour) 4 [1]: −21 mmHg
25 | C1=Cc2ccccc2C(=C2CCN(CCCCCC3CCCCC3)CC2)c2ccccc21 [Example 11, 1-Cyclohexyl-5-(4-(5H-dibenzo[a,d]cyclohepten-5-ylidene)-1-piperidinyl)pentane hydrochloride] | −166 | – | –
26 | C1=Cc2ccccc2C(=C2CCN(Cc3ccccc3)CC2)c2ccccc21.Cl [Example 12, 1-Benzyl-4-(5H-dibenzo[a,d]cyclohepten-5-ylidene)piperidine hydrochloride] | −27 | 1 | –
27 | C1=Cc2ccccc2C(=C2CCN(CCc3ccccc3)CC2)c2ccccc21.Cl [Example 13, 2-(4-(5H-Dibenzo[a,d]cyclohepten-5-ylidene)-1-piperidinyl)-1-phenylethane hydrochloride] | −47 | 4 | –
28 | C1=Cc2ccccc2C(=C2CCN(CCCc3ccccc3)CC2)c2ccccc21.Cl [Example 14, 3-(4-(5H-Dibenzo[a,d]cyclohepten-5-ylidene)-1-piperidinyl)-1-phenylpropane hydrochloride] | −105 | −10 | –
29 | C1=Cc2ccccc2C(=C2CCN(CCCCc3ccccc3)CC2)c2ccccc21.Cl [Example 15, 4-(4-(5H-Dibenzo[a,d]cyclohepten-5-ylidene)-1-piperidinyl)-1-phenylbutane hydrochloride] | −130 | −136 | –
30 | C1=Cc2ccccc2C(=C2CCN(CCCCCc3ccccc3)CC2)c2ccccc21.Cl [Example 16, 5-(4-(5H-Dibenzo[a,d]cyclohepten-5-ylidene)-1-piperidinyl)-1-phenylpentane hydrochloride] | −114 | −30 | –

Reference: patent publication USRE38257E1, “Piperdine derivatives and hypotensives containing the same” (Ajinomoto Co., Inc., priority 1988, dated 2003)
